Each block holds one compound with its values, some of them ahead of it.
Experiments:
traumatized rats = assay: Repeated application on elevated ICP in traumatized rats; type: in vivo, rat; settings: mannitol i.v. 0.125 g/kg/min, same time windows; FIG. 3
Experimental: Compound 1 was given 2 times with intermittent periods of 20 min at a i.v. dose of 1 mg/kg/min during 10 min, starting a first time 20 min after induction of severe head injury.
Mannitol was given i.v. in the same time windows as Compound 1 at a dose of 0.125 g/kg/min. The control animals received the solvent (containing 10% HP-β-CD, pH 4) only.
This effect is amplified after termination of each, infusion period.

Sprague-Dawley rats [1] = assay: Closed Head Injury (CHI) model, screening procedure (severe head injury); type: in vivo, rat
Description: (§1) A clinically relevant rat model for traumatic brain injury was used to test the compounds according to the invention. This model mimics several clinical features of traumatic brain injury, such as increased ICP, decreased cerebral perfusion pressure, morphologic alterations including diffuse axonal injury, neuronal necrosis and contusion, impairment of autoregulation of cerebral blood flow and reduction of brain oxygenation and was applied for screening drugs with ICP-lowering effects. Trauma was induced in intubated, isoflurane anesthetized (1.5% isoflurane in a mixture of 30% O2 and 70% N2O) Sprague-Dawley rats (380-400 g) stereotaxically positioned on a table mounted on 4 springs. A 400 g steel cylinder, protected with a 9 mm diameter silicon disc, was dropped on the unprotected skull from a height of either 70 cm or 50 cm (respectively ‘severe’ and ‘moderate’ head injury). The impact area was centered between bregma and lamda. ICP was recorded using a Codman microsensor probe inserted in the parietal cortex. In both severe and moderate head injuries the ICP increased immediately after trauma and remained elevated for several days. The severe head injury mode was used for the evaluation of pharmacological effects immediately after trauma (screening procedure). When survival and recovery from anesthesia was envisaged, the moderate head injury mode was applied. In pharmacological studies, animals with a pathological ICP between 12.5 and 35 mm Hg were included. The changes in ICP, mean arterial blood pressure (MABP) and cerebral perfusion pressure CPP (=[…]) were expressed as percentage of the initial value at onset of the treatment. Screening procedure: On a weekly base, 4 treated groups of 3 rats were compared with 3 saline treated animals. Since conventional statistical methods require a larger amount of animals, a sequential procedure was used. Sequential methods operate in different stages. At each stage, a group of animals was selected as homogeneous as possible. Animals were randomly allocated to either drugs or saline. The procedure allowed to make the decision of rejecting the drug, accepting the drug as active or to continue with a new group of animals in a next stage. Given the biological relevant level of activity that must be detected, the expected fraction of false positive and negative results was known and fixed. A sequential two-sample grouped rank test was used. […] Despite the variability in the individual data, the procedure consistently accepted reference treatments such as mannitol as active, while controls were rejected.

Sprague-Dawley rats [2] = assay: Continuous infusion of 0.1 mg/kg.min in the rat CHI model; type: in vivo
Description: as §1
The significant effect of compound 2 on MABP is much less pronounced when the compound is given at a continuous infusion of 0.1 mg/kg.min. […]

non-traumatised rats = assay: ICP, MABP and CPP in anaesthetised non-traumatised rats; type: in vivo, rat; settings: i.v. 0.5 mg/kg/min during 10 minutes, followed by 0.1 mg/kg/min during 50 min
Experimental: The effect of Compound 2, Compound 1 and Racemate (comp. 1 and comp. 2) on ICP, MABP and CPP was tested in anaesthetised non-traumatised rats. The compounds were administered i.v. and the same dose was given as in traumatized rats (0.5 mg/kg/min during 10 minutes, followed by 0.1 mg/kg/min during 50 min).

Sprague-Dawley rats [3] = assay: Changes in relevant physiological variables during treatment after severe CHI in rats; type: in vivo, rat; settings: median average change over entire treatment period, % change of initial value; 0.5 mg/kg/min 10 min then 0.1 mg/kg/min 50 min, started 20 min after severe CHI; n = 10
Description: as §1
Treatment was started at 20 min after severe head injury and involved administering a dose of 0.5 mg/kg/min during 10 minutes, followed by 0.1 mg/kg/min during 50 min.

rat brain = assay: Near-infrared spectroscopy (NIRS) of the rat brain: brain hemoglobin concentration and oxygenation after moderate head injury; type: in vivo; settings: 24 h after moderate head injury; i.v. 0.5 mg/kg.min 10 min then 0.1 mg/kg.min 45 min
Description: Near-infrared spectroscopy (NIRS) of the rat brain ‘in vivo’ allows to quantify non-invasively saturation of brain haemoglobin with oxygen (HbSat) and total brain haemoglobin concentration ([HbTot]). The latter is a measure for cerebral blood volume (CBV). Changes in the redox state of the mitochondrial enzyme cytochrome oxidase (CytOx), an indicator for tissue oxygenation, can also be monitored.
HbSat is not affected by compound 1 and the racemate (Comp. 1 and Comp. 2).

Sprague-Dawley rats [4] = assay: Influence of anaesthesia on effects on ICP and MABP 24 h after moderate trauma; type: in vivo, rat; settings: i.v. infusion 0.1 mg/kg.min 30 min, medians, n=6
Description: as §1
The effects of treatment with Compound 2 (i.v. infusion at a dose of 0.1 mg/kg.min during 30 min) at 24 h after moderate trauma were studied using different anesthetics (isoflurane, chloralhydrate, pentobarbital). […]

[5] = chloralhydrate 400 mg/kg i.p. anesthesia
[6] = pentobarbital 60 mg/kg i.p. anesthesia

melting point: 133.9 °C
Structure (SMILES): Cc1nc2ccccn2c(=O)c1CCN1CCC(C2(C)c3ccccc3CCn3c2nc2ccccc23)CC1 (stereo not drawn) (hydrate or solvate) [Compound 6]

melting point: 224.9 °C
Structure (SMILES): Cc1nc2sccn2c(=O)c1CCN1CCC(=C2c3ccccc3CCn3c2nc2ccccc23)CC1 [Compound 5, 6-[2-[4-(11,12-dihydro-6H-benzimidazo [2,1-b][3]benzazepin-6-ylidene)-1-piperidinyl]ethyl]-7-methyl-5H-thiazolo [3,2-a]pyrimidin-5-one]

ETCO2 (%) (Sprague-Dawley rats [3]): 2.4% | MABP (%) (Sprague-Dawley rats [3]): 0.6% | Resp. rate(%) (Sprague-Dawley rats [3]): 9.6%
Structure (SMILES): Cc1nc2n(C)c3ccccc3n2c(=O)c1CCN1CCC(C2c3ccccc3CCn3c2nc2ccccc23)CC1Cc1ccccc1 (racemic) [Racemate (comp. 1 and comp. 2), pyrimido[1,2-α]benzimidazol-4(10H)-one, 3-[2-[4-(11,12-dihydro-6H-benzimidazo[2,1-b][3]benzazepin-6-yl)-2-(phenylmethyl)-1-piperidinyl]ethyl]-2,10-dimethyl (E)-2-butenedioate (2:3) hydrate (1:1)]
effect on ICP, MABP and CPP (non-traumatised rats): comparable with those obtained in the traumatized animals | CPP (%) (Sprague-Dawley rats [3]): 7.5% | Heart rate(%) (Sprague-Dawley rats [3]): 5.6% | ICP (%) (Sprague-Dawley rats [3]): −19.1% | effect on saturation of brain haemoglobin with oxygen (HbSat) (rat brain): not affected | effect on total brain haemoglobin concentration [HbTot] (rat brain): do not have a significant effect

More lines, now with the values behind:

Structure (SMILES): OC[C@@H](O)[C@@H](O)[C@H](O)[C@H](O)CO [Mannitol]
effect on ICP during infusion (traumatized rats): lowering of ICP | effect on blood pressure (traumatized rats): increase in blood pressure during each infusion followed by a decrease in blood pressure after termination of each treatment | mean reduction of ICP (Sprague-Dawley rats [1]; i.v. mannitol 3 g over 45 min): about 20% | Decision (based upon sequential statistical evaluation) (Sprague-Dawley rats [1]; severe CHI rats, mannitol infusion of 67 mg/kg/min for 45 min, 5 separate tests): active | Delta %: average change of the relative ICP from baseline over the treatment period (Sprague-Dawley rats [1]; severe CHI rats, mannitol infusion of 67 mg/kg/min for 45 min, 5 separate tests, listed as Mannitol^1, 67 mg/kg): −21.7% | Delta %: average change of the relative ICP from baseline over the treatment period (Sprague-Dawley rats [1]; severe CHI rats, mannitol infusion of 67 mg/kg/min for 45 min, 5 separate tests, listed as Mannitol^2, 67 mg/kg): −22.1% | Delta %: average change of the relative ICP from baseline over the treatment period (Sprague-Dawley rats [1]; severe CHI rats, mannitol infusion of 67 mg/kg/min for 45 min, 5 separate tests, listed as Mannitol^3, 67 mg/kg): −13.0% | Delta %: average change of the relative ICP from baseline over the treatment period (Sprague-Dawley rats [1]; severe CHI rats, mannitol infusion of 67 mg/kg/min for 45 min, 5 separate tests, listed as Mannitol^4, 67 mg/kg): −19.3% | Delta %: average change of the relative ICP from baseline over the treatment period (Sprague-Dawley rats [1]; severe CHI rats, mannitol infusion of 67 mg/kg/min for 45 min, 5 separate tests, listed as Mannitol^5, 67 mg/kg): −19.9%

Structure (SMILES): Cc1nc2sccn2c(=O)c1CCN1CCC(C2c3ccccc3C(c3ccccc3)Cn3c2nc2ccccc23)CC1Cc1ccccc1 (stereo not drawn) [Compound 7]
melting point: 213.2 °C

Structure (SMILES): Cc1nc2sccn2c(=O)c1CCN1CCC(=C2c3ccccc3C=Cn3c2nc2ccccc23)CC1 [Compound 8, 6-[2-[4-(6H-benzimidazo[2,1-b][3]benzazepin-6-ylidene)-1-piperidinyl]ethyl]-7-methyl-5H-thiazolo[3,2-a]pyrimidin-5-one]
melting point: 178.8 °C

Structure (SMILES): Cc1nc2n(C)c3ccccc3n2c(=O)c1CCN1CCC(C2c3ccccc3CCn3c2nc2ccccc23)CC1Cc1ccccc1 (single isomer, unassigned) [Compound 2, (A)[(2α,4β)(A)] 3-[2-(4-(11,12-dihydro-6H-benzimidazo [2,1-b][3]benzazepin-6-yl)-2-(phenylmethyl)-1-piperidinyl]ethyl]-2,10-dimethyl-pyrimido[1,2-a]benzimidazol-4(10H)-one]
maximal reduction of ICP versus infusion preceded by loading dose of 5 mg/kg over 10 min (Sprague-Dawley rats [2]): comparable | time required to obtain maximal reduction of ICP (median) (Sprague-Dawley rats [2]): 30 min | increases in MABP observed (Sprague-Dawley rats [2]; larger increases not observed): ≤ 20% | median MABP increase at the end of the infusion (Sprague-Dawley rats [2]; n=6): 9% | effect on ICP, MABP and CPP (non-traumatised rats): comparable with those obtained in the traumatized animals | CPP (%) (Sprague-Dawley rats [3]): 24.2% | ETCO2 (%) (Sprague-Dawley rats [3]): −4.4% | Heart rate(%) (Sprague-Dawley rats [3]): −9.6% | ICP (%) (Sprague-Dawley rats [3]): −15.3% | MABP (%) (Sprague-Dawley rats [3]): 18.8% | Resp. rate(%) (Sprague-Dawley rats [3]): 6.6% | effect on saturation of brain haemoglobin with oxygen (HbSat) (rat brain): small but statistically significant reduction | effect on total brain haemoglobin concentration [HbTot] (rat brain): do not have a significant effect | ICP decreases to % of initial value (Sprague-Dawley rats [4]; [5]): 75 % of initial value | MABP increases to % of initial value (Sprague-Dawley rats [4]; [5]): 110 % of initial value | ICP decreases to % of initial value (Sprague-Dawley rats [4]; [6]): 64 % of initial value | MABP increase up to % of initial value at the end of the infusion (Sprague-Dawley rats [4]; [6]): 141 % of initial value

— patent US7476662B2, “Substituted tetracyclic imidazole derivatives, processes for their preparation, pharmaceutical compositions comprising them and their use as a medicine” (Janssen Pharmaceutica N.V., priority 2001, dated 2009)
